Like-named read-outs stand apart in the source and are kept apart here. Ends that are not written are not given here.
How the values were obtained:
[1] = continuous subcutaneous infusion
Method: Mice surgery/procedures were performed according to the NIH guidelines and were approved by the Institutional Animal Care and Use Committee (IACUC) at Case Western Reserve University. C57BL/6 non-transgenic wild type mice (NTG mice), Prnp-TARDBP mice (TDP-43 WT Tg mice) and Prnp-TARDBP*A315T mice (TDP-43 A315T Tg mice) were purchased from the Jackson Laboratory (Bar Harbor, Me.). Mice were infused subcutaneously with mini-osmotic pumps (Alzet Model 2004, Cupertino, Calif.; flow rate of 0.25 μl/hour). One day before implantation, mini-osmotic pumps were filled with 200 μl PBS containing cPM or PM1 peptides (0.5 mg/kg/Day) followed by pump incubation in PBS at 37 overnight according to the manufacturer's instructions. For surgery, male mice were anesthetized with avertin. A small incision was made at the back of mouse and mini-osmotic pump were implanted subcutaneously. After treatment, mice were deeply anesthetized with avertin and transcardially perfused with cold PBS and spinal cord and brain tissues were collected followed by fractionation, western blot or immunostaining.

[2] = 1.5 mg/kg/day s.c. infusion for 6 weeks; data not shown
cells = details: data not shown

| Sequence | detection in mitochondrial compartments [1] | reaching the central nervous system [1] | reaching the central nervous system [2] | toxic effect on cells (cells) |
| --- | --- | --- | --- | --- |
| YGRKKRRQRRRAQFPGACGL [PM1] | detected in all mitochondrial compartments | reached the central nervous system | reached the central nervous system |  |
| YGRKKRRQRRRSKGFGFVRF [PM3] |  |  |  | mild toxic effect |

From patent US11124553B2, “TDP-43 mitochondrial localization inhibitor for the treatment of neurogenerative disease” (Case Western Reserve University, priority 2016, dated 2021)
